Measurements as given in patent publication EP0227593A1, “Use of chelating agents” (THE HOSPITAL FOR SICK CHILDREN, priority 1985, dated 1987).

Tested on: HL-60 cells
Test: Colony growth of HL-60 cells
Assay type: cell-based, human
Description: HL-60 cells, a promyeloctic leukemia cell line originally developed by Dr. R. Gallo, NIH, were used. Cells were grown in RPMI supplemented with 10 % heat inactivated fetal calf serum (FCS, Flow Laboratories, Rockville, MO) and 2 mM glutamine (Gibco, Berkely, CA), at densities ranging from 1-2 x 10⁵/ml to 1-10⁶/ml, in a 5 % CO₂ humidified atmosphere at 37°C.
HL-60 cells (10⁴/ml) were plated in 0.8 % methycellulose in RPMI-1640 medium supplemented with 20 % heat inactivated (56°C, 30 min) fetal calf serum at a final volume of 1 ml/culture plate. Cultures were set up in duplicates and maintained at 37°C in a 5 % CO₂ humidified atmosphere. Deferoxamine was dissolved in iron-free RPMI culture medium and added at the initiation of culture at different concentrations (1-10 µM). Colonies were counted at 7 days using an inverted microscope. A cluster of more than 20 cells was defined as a colony. Individual colonies were plucked from culture plates spread on glass slides and morphologically assessed after preparation with Wright's stain and non-specific esterase in the presence of fluoride (29). The self renewal capacity of cells was assessed according to McCulloch et al (30). RPMI-1640 medium was added to culture dishes for 2 hrs; the contents of each dish were then transferred into a tube, centrifuged and washed with medium three times. Cells from each dish were counted separately, and viability was assessed by trypan blue dye exclusion. Cells (1x10⁴/ml) from each dish were recultured in 0.8 % methylcellulose as before.

For CC(=O)N(O)CCCCCNC(=O)CCC(=O)N(O)CCCCCNC(=O)CCC(=O)N(O)CCCCCN [DFO, desferioxamine methanesulfonate], the “inhibition of HL-60 colony proliferation” value (10 µm DFO) was 100% and the inhibition at 3.5 µM (Homo sapiens, HL-60, 3.5 µM DFO, read-out: inhibition of HL-60 colony proliferation) was 50%.
